Results from patent US12459951B2, “Compounds that interact with RAS superfamily proteins for treatment of cancers, inflammatory diseases, rasopathies, and fibrotic disease” (SHY Therapeutics, LLC, priority 2022, dated 2025).

Legend:
[1] = test system: Smad2/Smad3 phosphorylation; assay: Phospho-Smad2/3 Inhibition Assay (western blot), Panc-1; type: cell-based, human; conditions: at 10 μM, Panc-1 pancreatic cancer cell line; starred symbols = activation
Method: Protocol for Phospho-Smad2/3 Inhibition Assay
This assay is referred to as the “Phospho-Smad2/3 Inhibition Assay” throughout this application.
Cell lines: Human tumor-derived pancreatic cancer cell line Panc-1 (expressing KRas G12D mutant) and mouse muscle myoblast C2C12 were purchased from American Type Culture Collection and grown in complete DMEM-High Glucose, supplemented with penicillin (100 U/mL), streptomycin (100 μg/mL), and 10% heat-inactivated FBS at 37° C. in a humidified incubator with 5% CO2.
Method: Cells were plated at 350000 cells/well density in a 12-well plate, allowed 3 hours to adhere to the plate, then starved in the appropriate medium in the presence of 0.5% FBS overnight. The small molecules to be tested were added to the cells in the final concentration of 10 μM in the presence of 0.3% DMSO for 3 hours incubation at 37° C. For IC50 value determination, serial dilutions of compounds were added to cells under the same conditions. Next, Panc-1 cells were stimulated with 10 ng/ml TGF-b1 for 1 hour, and C2C12 cells were stimulated with 10 ng/ml TGF-b1 for 20 minutes (recombinant human TGF-b1, R&D Systems). After stimulation cells were lysed with lysis buffer containing 1% Triton X-100, EDTA, and Halt™ Protease & Phosphatase Inhibitor Cocktail (Thermo Scientific). Protein concentration was assessed by BCA protein assay (Thermo Scientific). Phosphorylation level of Smad2/Smad3 was determined by western blot.
Western blot protocol: Equal amounts of protein (15-50 μg) were separated by SDS-PAGE and transferred to nitrocellulose membranes (Invitrogen by Thermo Fisher Scientific). The membrane was stained with Ponceau S Stain (Boston BioProducts) to verify uniform protein loading. Membranes were blocked with 10% milk and phosphorylation levels of Smad2/Smad3 were assessed by incubating overnight at 4° C. with the following antibodies: Phospho-Smad2 (Ser465/467) and Phosph-Smad3 (Ser423/425), both from Cell Signaling Technology. Then the membranes were incubated with HRP-conjugated secondary antibody (Jackson Immunoresearch, West Grove, PA). Bands were incubated in Amersham ECL Prime Western Blotting Detection Reagent (GE Healthcare) and visualized using the ChemiDoc MP imaging system (Bio-Rad).

KRas wild type = assay: Ras GTP Binding Domain Inhibition Assay (Ras Superfamily Assay); conditions: 20 μM compound; for KRas wild type + SOS: % inh.: with SOS; for KRas wild type: % inh.: without SOS
Outline: (§1)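 Ni-plate capture of His-tagged protein (10-30 μg/mL, o/n 4° C); cpd 20 μM or dilution series, 1% DMSO, 3 h RT ± Sos 556-1049 last h; 100 nM Cy-labelled GTP 45 min RT; 3× wash; fluorescence read.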

Rac-1 = target: T1, Rac-1 (Homo sapiens, UniProt P63000); assay: as above; conditions: read-out: Rac-1: % inh.
T1 construct: made in house
Outline: as §1

KRas G12D mutant = assay: as above; conditions: 20 μM compound; for KRas G12D mutant + SOS: % inh.: with SOS; for KRas G12D mutant: % inh.: without SOS
Outline: as §1

TNF-alpha = TNF-alpha Quantification Assay (ELISA), LPS-stimulated RAW 264.7; type: cell-based; conditions: Mus musculus, RAW264.7; at 10 μM; read-out: TNFα: % inh.
IL6 = assay: IL-6 Quantification Assay (ELISA), LPS-stimulated RAW 264.7; type: cell-based; parameters: inhibition: dose or concentration left out as unconfirmed; conditions: Mus musculus, RAW264.7; read-out: IL-6: % inh.

Compound	% inh of Smad2/3 phosphorylation in Panc-1 [1]	KRas wild type + SOS: % inh. (KRas wild type)	KRas wild type: % inh. (KRas wild type)	inhibition at 20 µM (Rac-1) [%]	KRas G12D mutant + SOS: % inh. (KRas G12D mutant)	KRas G12D mutant: % inh. (KRas G12D mutant)	inhibition at 10 µM (TNF-alpha) [%]	inhibition (IL6) [%]
Cc1c(-c2ccn(C(C)C)n2)cn2nc(-c3ccccn3)nc(O)c12 [Compound 8, 6-(1-Isopropyl-1H-pyrazol-3-yl)-5-methyl-2-(pyridin-2-yl)pyrrolo[2,1-f][1,2,4]triazin-4-ol]	0 (0 = 0% inhibition)	0 (0 = 0% inhibition)	A (A = 1-25% inhibition)	0	A (A = 1-25% inhibition)	0 (0 = 0% inhibition)	0	0
Cc1c(-c2ccn(C)n2)cn2nc(-c3nccn3C)nc(Nc3cc4n(n3)CCC4)c12 [Compound 100, N-(5,6-Dihydro-4H-pyrrolo[1,2-b]pyrazol-2-yl)-5-methyl-2-(1-methyl-1H-imidazol-2-yl)-6-(1-methyl-1H-pyrazol-3-yl)pyrrolo[2,1-f][1,2,4]triazin-4-amine]	C* (C* = 46-75% activation)	D (D = 76-100% inhibition)	D (D = 76-100% inhibition)	76 to 100	D (D = 76-100% inhibition)	D (D = 76-100% inhibition)	0	50 to 74
Cc1c(-c2ccn(C)n2)cn2nc(-c3nccn3C)nc(Nc3cc(C4CC4)[nH]n3)c12 [Compound 104, N-(5-Cyclopropyl-1H-pyrazol-3-yl)-5-methyl-2-(1-methyl-1H-imidazol-2-yl)-6-(1-methyl-1H-pyrazol-3-yl)pyrrolo[2,1-f][1,2,4]triazin-4-amine]	D* (D* = 76-100% activation)	D (D = 76-100% inhibition)	D (D = 76-100% inhibition)	76 to 100	D (D = 76-100% inhibition)	D (D = 76-100% inhibition)	0	75 to 100
Cc1c(-c2ccn(C3CC3)n2)cn2nc(-c3nccn3C)nc(Nc3cc(OCC(F)(F)F)ccn3)c12 [Compound 140, 6-(1-Cyclopropyl-1H-pyrazol-3-yl)-5-methyl-2-(1-methyl-1H-imidazol-2-yl)-N-(4-(2,2,2-trifluoroethoxy)pyridin-2-yl)pyrrolo[2,1-f][1,2,4]triazin-4-amine]	A (A = 1-25% inhibition)	C (C = 50-75% inhibition)	C (C = 50-75% inhibition)	76 to 100	D (D = 76-100% inhibition)	C (C = 50-75% inhibition)	0	50 to 74
COc1ccnc(Nc2nc(-c3nccn3C)nn3cc(-c4cccnc4)c(-c4ccccn4)c23)c1 [Compound 166, N-(4-Methoxypyridin-2-yl)-2-(1-methyl-1H-imidazol-2-yl)-5-(pyridin-2-yl)-6-(pyridin-3-yl)pyrrolo[2,1-f][1,2,4]triazin-4-amine]	C* (C* = 46-75% activation)	D (D = 76-100% inhibition)	C (C = 50-75% inhibition)	76 to 100	D (D = 76-100% inhibition)	D (D = 76-100% inhibition)	75 to 100	75 to 100
Cc1c(-c2ccn(C)n2)cn2nc(-c3nccn3C)nc(Nc3ccccn3)c12 [Compound 118, 5-Methyl-2-(1-methyl-1H-imidazol-2-yl)-6-(1-methyl-1H-pyrazol-3-yl)-N-(pyridin-2-yl)pyrrolo[2,1-f][1,2,4]triazin-4-amine]	A* (A* = 1-25% activation)	D (D = 76-100% inhibition)	D (D = 76-100% inhibition)	76 to 100	D (D = 76-100% inhibition)	D (D = 76-100% inhibition)	1 to 24	25 to 49
Cc1c(-c2ccn(C(C)C)n2)cn2nc(-c3nccn3C)nc(Nc3cc(OCCO)ncn3)c12 [Compound 97, 2-((6-((6-(1-Isopropyl-1H-pyrazol-3-yl)-5-methyl-2-(1-methyl-1H-imidazol-2-yl)pyrrolo[2,1-f][1,2,4]triazin-4-yl)amino)pyrimidin-4-yl)oxy) ethan-1-ol]	D (D = 76-100% inhibition)	D (D = 76-100% inhibition)	D (D = 76-100% inhibition)	76 to 100	D (D = 76-100% inhibition)	D (D = 76-100% inhibition)	0	1 to 24
Cc1c(-c2ccn(C)n2)cn2nc(-c3nccn3C)nc(Nc3cnccn3)c12 [Compound 120, 5-Methyl-2-(1-methyl-1H-imidazol-2-yl)-6-(1-methyl-1H-pyrazol-3-yl)-N-(pyrazin-2-yl)pyrrolo[2,1-f][1,2,4]triazin-4-amine]	A* (A* = 1-25% activation)	C (C = 50-75% inhibition)	A (A = 1-25% inhibition)	26 to 49	A (A = 1-25% inhibition)	B (B = 26-49% inhibition)	1 to 24	25 to 49
Cc1c(-c2ccn(C3CC3)n2)cn2nc(-c3nccn3C)nc(Nc3cc(N(C)C)ccn3)c12 [Compound 145, N^2-(6-(1-Cyclopropyl-1H-pyrazol-3-yl)-5-methyl-2-(1-methyl-1H-imidazol-2-yl)pyrrolo[2,1-f][1,2,4]triazin-4-yl)-N^4,N^4-dimethylpyridine-2,4-diamine]	B* (B* = 26-45% activation)	D (D = 76-100% inhibition)	D (D = 76-100% inhibition)	76 to 100	D (D = 76-100% inhibition)	D (D = 76-100% inhibition)	1 to 24	50 to 74
CCc1nc(Nc2nc(-c3nccn3C)nn3cc(-c4ccn(C)n4)c(C)c23)nn1C [Compound 108, N-(5-Ethyl-1-methyl-1H-1,2,4-triazol-3-yl)-5-methyl-2-(1-methyl-1H-imidazol-2-yl)-6-(1-methyl-1H-pyrazol-3-yl)pyrrolo[2,1-f][1,2,4]triazin-4-amine]	D* (D* = 76-100% activation)	C (C = 50-75% inhibition)	D (D = 76-100% inhibition)	76 to 100	C (C = 50-75% inhibition)	D (D = 76-100% inhibition)	0	50 to 74
COc1ccnc(Nc2nc(-c3nccn3C)nn3cc(-c4cnn(C(C)C)c4)c(C)c23)c1 [Compound 165, 6-(1-Isopropyl-1H-pyrazol-4-yl)-N-(4-methoxypyridin-2-yl)-5-methyl-2-(1-methyl-1H-imidazol-2-yl)pyrrolo[2,1-f][1,2,4]triazin-4-amine]	B* (B* = 26-45% activation)	D (D = 76-100% inhibition)	D (D = 76-100% inhibition)	50 to 75	D (D = 76-100% inhibition)	D (D = 76-100% inhibition)	1 to 24	50 to 74
